The values that follow come from PubChem BioAssay (NCI).

“And” between values parts separate entries of the source, which are not always exact repeats. Equal entries are not always repeated.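 1) Cells in 96-well plates. 2) Compound, 48 h, 5 concentrations. 3) Linear interpolation between surrounding doses. 4) Unreached endpoint = highest concentration. At the GI50, growth is halved. TGI: total growth inhibition.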

Some test systems named below: BT-549 breast; DMS 114 small cell lung; HOP-18 NSCLC; M19-MEL melanoma; MDA-N; P388/ADR leukemia; SNB-78 CNS; T-47D breast; XF 498 CNS; RXF-631 renal.
What all share (assay): NCI tumour cell line growth inhibition, 48 h

For `CC[C@H]1CN2CCc3cc(OC)c(OC)cc3[C@@H]2C[C@@H]1C[C@H]1NCCc2cc(O)c(OC)cc21`, the GI50 is 0.0422 µM and 0.0485 µM with BT-549 breast; 0.0284 µM and 0.13 µM in the assay with HOP-18 NSCLC; 0.0127 µM in the assay on MDA-N; 0.0609 µM in the assay with P388/ADR leukemia; 0.0266 µM and 0.0502 µM in the assay on SNB-78 CNS; 0.022 µM with T-47D breast. Also, in the assay with XF 498 CNS, the GI50 was 0.025 µM. The TGI with BT-549 breast is 0.298 µM; in the assay on DMS 114 small cell lung, 0.0247 µM and 0.0373 µM; with HOP-18 NSCLC, 0.793 µM; in the assay with M19-MEL melanoma it was 0.0492 µM and 0.0178 µM and 0.0876 µM; in the assay on MDA-N it was 0.0354 µM and 0.141 µM; in the assay on P388/ADR leukemia, 29.6 µM. Besides, the TGI with T-47D breast is 0.0776 µM; with XF 498 CNS it was 0.0388 µM.
In the case of `COc1ccc(/C(Cl)=C(\C=O)c2ccc([N+](=O)[O-])cc2)cc1OC`, the TGI in the assay on DMS 114 small cell lung was 22.3 µM; in the assay on HOP-18 NSCLC, 23.7 µM; with M19-MEL melanoma, 24.3 µM; with MDA-N, 14.5 µM; in the assay on RXF-631 renal, 26.9 µM; in the assay with SNB-78 CNS, 56.5 µM. In addition, the TGI with T-47D breast is more than 100 µM; in the assay on XF 498 CNS, 9.59 µM.
In the case of `Cn1c2c(c3ccccc31)C1CCCCC1C1C(=O)NC(=O)C21` (centres undefined), the TGI in the assay with DMS 114 small cell lung, in the assay with HOP-18 NSCLC, in the assay on M19-MEL melanoma, with RXF-631 renal, in the assay on SNB-78 CNS and with XF 498 CNS was more than 100 µM throughout.
As to `CN1C2(c3ccccc3)c3c(-c4ccccc4)sc(-c4ccccc4)c3C1(c1ccccc1)C1C(=O)N(c3ccccc3)C(=O)C12` (centres undefined), the TGI in the assay with DMS 114 small cell lung, in the assay with HOP-18 NSCLC, with M19-MEL melanoma, in the assay on RXF-631 renal, in the assay on SNB-78 CNS and in the assay with XF 498 CNS was more than 100 µM in each case.
For `CCn1c2c(n(CC)c1=S)-c1c(n(CC)c(=S)n1CC)SSSS2`, the TGI in the assay on BT-549 breast was 29.1 µM; with DMS 114 small cell lung, 38.1 µM; with HOP-18 NSCLC it was 22 µM; in the assay with M19-MEL melanoma it was 22.1 µM; in the assay on RXF-631 renal it was 24.4 µM; with SNB-78 CNS, 28.1 µM. In addition, the results for the TGI in the assay with T-47D breast and in the assay on XF 498 CNS were 5.16 µM and 4.08 µM, respectively.
Regarding `COC1(OC)CC2C=C(S(=O)(=O)c3ccccc3)C1N(Cc1ccccc1)C2=O` (centres undefined), the TGI is 48.3 µM in the assay on DMS 114 small cell lung; more than 100 µM in the assay on HOP-18 NSCLC; more than 100 µM in the assay with M19-MEL melanoma; 88.2 µM in the assay with RXF-631 renal; 75.9 µM in the assay with SNB-78 CNS; 48.1 µM with XF 498 CNS.
